Assay [1] has as its target T1, L-arginine deiminase (ADI) from Penicillium chrysogenum.
T1 construct: single 49 kDa band on SDS-PAGE
In words: ammonia release, Nessler's reagent, […] nm; residual activity at […]. Type of assay: biochemical.

Assay [2] relates to T1, L-arginine deiminase (ADI) from Penicillium chrysogenum. Kind of assay: ammonia release, Nessler's reagent, […] nm; Eadie-Hofstee plot. Type of assay: biochemical. The settings on record: 40 °C, 30 min; phosphate buffer pH 7.5 in the standard assay.
Where [3] appears, read: chelator in the reaction mixture, L-arginine as substrate, 40 °C.

The values below come from PMC10829382, “Purification and characterization of L-arginine deiminase from Penicillium chrysogenum” (BMC Microbiology, 2024).

Each structure is given as a SMILES string.

As usually defined, the IC50 is the concentration that inhibits the measured activity by half. Usually Km stands for the concentration of substrate that gives half-maximal velocity.

As for `c1ccc(-c2ccccn2)nc1` [α,α-dipyridyl], the IC50 in assay [1] (setting [3]) was determined as 7.46 mM. Compound `CCN1C(=O)C=CC1=O` [N-ethylmaleimide] yielded an IC50 in assay [1] (covalent, sulfhydryl modifier, pre-incubated 1 h at 25 °C, 100 mM Tris-HCl pH 5.0, 1 mM EDTA) of 4.95 mM. Regarding `CCOC(=O)OC(=O)OCC` [diethylpyrocarbonate], the midpoint of inhibition in assay [1] (covalent, histidyl modifier, assay buffer, 25 °C, 5 min), the IC50, lay at 6.44 mM.

`CC(=O)C(C)=O` [butanedione] returned an IC50 in assay [1] (covalent, arginyl modifier, 50 mM sodium borate pH 7.0, room temperature) of 4.66 mM. Compound `CC(=O)n1ccnc1` [N-acetyl-imidazole] gave an IC50 in assay [1] (covalent, tyrosyl modifier, 150 mM phosphate pH 7.5, 37 °C, 20 min) of 5.4 mM.

Take `CN(C)c1cccc2c(S(=O)(=O)Cl)cccc12` [dansyl chloride]: it took 6.48 mM to reach half-maximal inhibition in assay [1] (covalent, lysyl modifier, 100 mM Tris-HCl pH 7.0, 4 °C, 1 h) (IC50). As for `O=C1CCC(=O)N1Br` [N-bromosuccinimide], the IC50 in assay [1] (covalent, tryptophanyl modifier, 1 h in 150 mM phosphate pH 7.5, then dialysed before assay) was 5 mM. Turning to `N=C(N)NCCC[C@H](N)C(=O)O` [L-arginine], in assay [2], the Km was 750 µM. Turning to `c1cnc2c(c1)ccc1cccnc12` [o-phenanthroline], in assay [1] (setting [3]), the IC50 is 4.79 mM. For `O=C(O)CN(CCN(CC(=O)O)CC(=O)O)CC(=O)O` [EDTA], the IC50 in assay [1] (setting [3]) was 5.19 mM.
